The values below come from paper PMC6449294, “SNAPshots of the MCHR1: a Comparison Between the PET-Tracers [^18F]FE@SNAP and [^11C]SNAP-7941” (Molecular Imaging and Biology, 2018).

Series [1] relates to native CHO-K1 cells. Kind of series: Kinetic real-time cell-binding study on native CHO-K1 cells (negative control, unspecific uptake). The format is cell-based, Chinese hamster. To be noted: result in words. Here is the method:
Kinetic real-time cell-binding studies were performed on adherent Chinese hamster ovary (CHO-K1) cells (negative control) and CHO-K1 cells stably expressing the human MCHR1 or MCHR2 (PerkinElmer®; Waltham, MA, USA) with [^11C]SNAP-7941 and [^18F]FE@SNAP as previously reported. The cells were cultured in Ham’s F-12 medium (Gibco®, Life Technologies) with additives (1 % penicillin-streptomycin-glutamine (PSG), 10 % fetal bovine serum (FBS), and 300-μg/m Geneticin (G-418)) and incubated in a humidified 5 % CO2 atmosphere at 37 °C. For the preparation of the binding experiment, approximately 10^6 cells were seeded as a monolayer on the bottom of a tilted cell culture dish (100 mm × 20 mm, CELLSTAR®, Greiner Bio-One) and incubated with 2-ml medium for 24 h to avoid a spreading of the cells over the whole Petri dish. In the next step, the medium was discarded and the Petri dish was placed in a horizontal position with 10-ml medium for additional 24 h. […] Unspecific radiotracer uptake was determined with native CHO-K1 cells. […] Association-time curves were monitored in real-time until the binding equilibrium was achieved. The observed rate constant of the association reaction (kobs) was determined using non-linear regression curve fitting algorithms implemented in GraphPad Prism 6.0 (GraphPad Software, Inc., San Diego, CA, USA), as previously reported. […]

The target of series [2] is T1, human MCHR1 (Homo sapiens, UniProt Q99705).
T1 construct: host or cells: CHO-K1
T1 sequence (Q99705 whole entry): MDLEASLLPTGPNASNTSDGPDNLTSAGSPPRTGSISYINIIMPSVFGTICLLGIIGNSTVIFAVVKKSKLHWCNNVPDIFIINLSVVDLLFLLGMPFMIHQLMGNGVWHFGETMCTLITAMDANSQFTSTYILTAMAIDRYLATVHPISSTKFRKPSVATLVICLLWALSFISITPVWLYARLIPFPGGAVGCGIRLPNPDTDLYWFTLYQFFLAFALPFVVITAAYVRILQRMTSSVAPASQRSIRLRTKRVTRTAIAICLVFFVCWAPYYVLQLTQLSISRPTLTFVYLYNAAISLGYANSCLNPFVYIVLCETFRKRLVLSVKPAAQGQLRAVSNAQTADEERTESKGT
In words: Kinetic real-time cell-binding study (LigandTracer) on CHO-K1-hMCHR1 cells. The format is cell-based. To be noted: for observed association rate constant (kobs): CHO-K1-hMCHR1 cells, ambient temperature, radiotracer 0.05–1000 nM, mean ± SEM; for accumulation on CHO-K1-hMCHR1 cells: real-time cell binding, result in words. Here is the method: (§1) Kinetic real-time cell-binding studies were performed on adherent Chinese hamster ovary (CHO-K1) cells (negative control) and CHO-K1 cells stably expressing the human MCHR1 or MCHR2 (PerkinElmer®; Waltham, MA, USA) with [^11C]SNAP-7941 and [^18F]FE@SNAP as previously reported. The cells were cultured in Ham’s F-12 medium (Gibco®, Life Technologies) with additives (1 % penicillin-streptomycin-glutamine (PSG), 10 % fetal bovine serum (FBS), and 300-μg/m Geneticin (G-418)) and incubated in a humidified 5 % CO2 atmosphere at 37 °C. For the preparation of the binding experiment, approximately 10^6 cells were seeded as a monolayer on the bottom of a tilted cell culture dish (100 mm × 20 mm, CELLSTAR®, Greiner Bio-One) and incubated with 2-ml medium for 24 h to avoid a spreading of the cells over the whole Petri dish. In the next step, the medium was discarded and the Petri dish was placed in a horizontal position with 10-ml medium for additional 24 h. Afterwards, the binding experiment was performed at ambient temperature with LigandTracer® Yellow (Ridgeview Instruments AB, Uppsala, Sweden) using 3-ml fresh medium (Ham’s F-12, serum-free). Unspecific radiotracer uptake was determined with native CHO-K1 cells. The experiments were initiated with baseline measurements for 10–15 min followed by radioligand incubation of [^11C]SNAP-7941 and [^18F]FE@SNAP. Binding to the seeded cells was ensured by adding different concentrations of the radiotracer (0.05–1000 nM). Association-time curves were monitored in real-time until the binding equilibrium was achieved. The observed rate constant of the association reaction (kobs) was determined using non-linear regression curve fitting algorithms implemented in GraphPad Prism 6.0 (GraphPad Software, Inc., San Diego, CA, USA), as previously reported. Cell survival was continuously examined using the perimeter trace (signal vs. dish position) of the LigandTracer® 1.0.1 software (Ridgeview Instruments AB, Uppsala, Sweden).

Series [3] relates to P-gp/BCRP. Kind of series: Small animal PET of rat brain, vehicle vs pretreatment with P-gp/BCRP inhibitor TQD. It is filed as in vivo. The note with it: for increase of brain uptake in TQD blocking group vs vehicle: rats, TQD 15 mg/kg 60 min before radiotracer, PET. Here is the method: Ten-week-old male rats (412 ± 58 g, Sprague-Dawley, HIM:OFA, n = 30) and 12-week-old male mice (24 ± 6 g, BALB/cAnNRj, n = 7) were purchased from the Division of Laboratory Animal Science and Genetics, Himberg, Austria. Animals were kept under conventional housing conditions (22 ± 1 °C; 40–70 % humidity) with food and water supply ad libitum and 12-h day/night cycle. All animals were treated according to the European Union rules on animal care and respective animal experiments were approved by the Austrian Ministry of Sciences, Research and Economy (BMWFW-66.009/0029-WF/V/3b/20159). For in vivo imaging, animals were anesthetized using 1.5–2 % isoflurane mixed with oxygen (1.5–2 l/min) to avoid movement during the examination. Anesthesia as well as vital parameters were monitored during the time interval of PET acquisition. Radioligands and non-labeled compounds were administered intravenously via the lateral tail vein.
Anesthetized rats and mice were immobilized in a multimodal animal carrier unit (MACU; medres®—medical research GmbH, Cologne, Germany). The body temperature was preserved at 37 °C throughout the whole experiment. Rats received either [^11C]SNAP-7941 or [^18F]FE@SNAP, followed by an injection of (±)-SNAP-7941 (15-mg/kg body weight; displacement study; n = 4 for each radiotracer) or the respective solvent serving as the vehicle (baseline condition; n = 4 for each radiotracer). The MCHR1 antagonist, (±)-SNAP-7941, and the vehicle were administered either 15 ([^11C]SNAP-7941) or 20 min ([^18F]FE@SNAP) after the radiotracer application via the lateral tail vein. To investigate a potential binding to the P-glycoprotein (P-gp) and/or breast cancer resistance protein (BCRP) brain efflux transporter system, rats as well as mice were pretreated either with the P-gp/BCRP inhibitor TQD (15 mg/kg body weight; P-gp/BCRP inhibition group; rats: n = 4 for each radiotracer; mice: n = 4 for [^18F]FE@SNAP) or the respective solvent (baseline condition; rats: n = 3 for each radiotracer; mice: n = 3 for [^18F]FE@SNAP)). […]

Series [4] concerns the target T2, human MCHR2 (Homo sapiens, UniProt Q969V1).
T2 construct: host or cells: CHO-K1
In words: Kinetic real-time cell-binding study (LigandTracer) on CHO-K1-hMCHR2 cells. The note with it: for Selectivity over MCHR2: CHO-K1-hMCHR1 vs CHO-K1-hMCHR2 living cells, Yes/No; for accumulation on CHO-K1-hMCHR2 cells: real-time cell binding, result in words. The format is cell-based. Here is the method: as §1

On the set-up of series [5]: method as in earlier work. The note with it: ultrafiltration, human pooled plasma; ref 30 and 34 (table), 32 and 36; cited from earlier work.

T2 sequence (Q969V1 whole entry): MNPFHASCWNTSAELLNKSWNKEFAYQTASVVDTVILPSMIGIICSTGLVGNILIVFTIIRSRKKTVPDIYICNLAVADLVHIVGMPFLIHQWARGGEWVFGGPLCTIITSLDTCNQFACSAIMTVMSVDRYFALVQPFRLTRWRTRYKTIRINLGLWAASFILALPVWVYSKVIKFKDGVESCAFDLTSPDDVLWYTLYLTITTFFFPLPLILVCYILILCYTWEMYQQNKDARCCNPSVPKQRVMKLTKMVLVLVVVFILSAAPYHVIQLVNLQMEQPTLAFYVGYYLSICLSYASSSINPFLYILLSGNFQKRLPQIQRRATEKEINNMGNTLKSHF

For the compound `COCC1=C(C(=O)O[11CH3])C(c2ccc(F)c(F)c2)N(C(=O)NCCCN2CCC(c3cccc(NC(C)=O)c3)CC2)C(=O)N1` (stereo not shown) [[^11C]SNAP-7941], the “accumulation on native CHO-K1 cells” value in series [1] was “negligible accumulation”. Moreover, in series [2], the “observed association rate constant (kobs)” value was found to be 0.0629 ± 0.0020 min⁻¹ and the “accumulation on CHO-K1-hMCHR1 cells” value is “high accumulation”. Further, in series [3] (rat brain PET after TQD pretreatment, result in words), the P-gp/BCRP substrate status result is on record as “P-gp/BCRP substrate”. Moreover, the “increase of brain uptake in TQD blocking group vs vehicle” value in series [3] is given as 3.04 times. Besides, in series [4], the “Selectivity over MCHR2” value was “Yes” and the “accumulation on CHO-K1-hMCHR2 cells” value is “negligible accumulation”. Moreover, in series [5], the “Plasma free fraction (human)” value is 20.96 ± 1%.

For `COCC1=C(C(=O)OCC[18F])C(c2ccc(F)c(F)c2)N(C(=O)NCCCN2CCC(c3cccc(NC(C)=O)c3)CC2)C(=O)N1` (stereo not shown) [[^18F]FE@SNAP], in series [1], the “accumulation on native CHO-K1 cells” value is “negligible accumulation”. Further, in series [2], the “observed association rate constant (kobs)” value amounted to 0.0859 ± 0.0028 min⁻¹ and the “accumulation on CHO-K1-hMCHR1 cells” value is on record as “high accumulation”. Also, the “increase of brain uptake in TQD blocking group vs vehicle” value in series [3] came to 2.45 times. In series [4], the “Selectivity over MCHR2” value was “No” and the “accumulation on CHO-K1-hMCHR2 cells” value was “exhibited accumulation”. Also, in series [4] (CHO-K1-hMCHR2 cells, ambient temperature, radiotracer 0.05–1000 nM, mean ± SEM), the “observed association rate constant (kobs)” value was determined as 0.0918 ± 0.0031 min⁻¹. For the same compound, the “Plasma free fraction (human)” value in series [5] was 12.6 ± 0.2%.
